Assay results published in US12441709B2, “Therapeutic compounds” (INDIVIOR UK LIMITED, priority 2016, dated 2025).
Where two headings read alike, the source gives them in different places. No end group written: not given here.

Key:
[1] = molecular target: T1, human OX2 receptor (Homo sapiens, UniProt O43614); assay: Orexin 2 receptor radioligand binding assay ([3H]-EMPA competition); conditions: CHO membranes, 2 nM [3H]-EMPA, 60 min room temperature; read-out: hOX2 pKi (converted)
T1 construct: expressed in transfected cells; host or cells: CHO cell line (membranes)
T1 sequence (O43614 1-444): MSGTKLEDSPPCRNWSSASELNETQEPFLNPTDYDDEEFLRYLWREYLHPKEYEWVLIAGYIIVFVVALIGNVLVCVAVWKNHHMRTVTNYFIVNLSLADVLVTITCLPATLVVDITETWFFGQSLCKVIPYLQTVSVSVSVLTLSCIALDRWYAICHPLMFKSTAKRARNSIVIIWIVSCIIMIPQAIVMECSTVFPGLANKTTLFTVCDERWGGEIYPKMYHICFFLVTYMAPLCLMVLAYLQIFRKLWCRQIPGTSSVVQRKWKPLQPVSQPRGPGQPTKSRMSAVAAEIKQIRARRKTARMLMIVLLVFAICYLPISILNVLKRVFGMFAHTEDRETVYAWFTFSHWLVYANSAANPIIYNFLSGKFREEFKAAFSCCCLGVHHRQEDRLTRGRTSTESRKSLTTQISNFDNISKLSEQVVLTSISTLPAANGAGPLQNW
Method: Orexin 2 Receptor Radioligand Binding Assay:
Cell membranes were prepared from the human Ox2 receptor expressing CHO cell line. The harvested cell pellets were homogenized in ice-cold buffer (15 mM TrisHCl (pH 7.4), 2 mM MgCl2, 0.3 mM EDTA, 1 mM EGTA, Sigma FAST™ protease inhibitor cocktail) and centrifuged at 45,000 rpm for 30 min at 4° C. After discarding the supernatants the pellets were re-suspended in the before mentioned buffer followed by homogenization and another centrifugation. Obtained pellets were re-suspended in ice cold buffer containing 75 mM TrisHCl (pH 7.5), 12.5 mM MgCl2, 0.3 mM EDTA, 1 mM EGTA, 250 mM sucrose and a Sigma FAST TM protease inhibitor cocktail. After protein quantification with the Pierce Protein Assay Kit, using BSA as standard, the membrane homogenates were aliquoted and frozen down at […] until further use.
(§1) Expression levels of the Ox2 receptor (Bmax) were determined by saturation binding and the Kd of the radioligand [^3H]EMPA was determined by association and dissociation kinetics. Data were elaborated with Graph Pad Prism using radioligand binding analysis. Steady state binding was reached after 60 min of incubation at room temperature. […]

[2] = molecular target: T2, human Orexin 1 receptor (Homo sapiens, UniProt O43613); assay: Kinetics of competitive binding (Motulsky and Mahan analysis), Orexin 1 receptor; conditions: for Ki: read-out: pKi (M&M) (converted)
T2 construct: expressed in transfected cells
T2 sequence (O43613 1-425): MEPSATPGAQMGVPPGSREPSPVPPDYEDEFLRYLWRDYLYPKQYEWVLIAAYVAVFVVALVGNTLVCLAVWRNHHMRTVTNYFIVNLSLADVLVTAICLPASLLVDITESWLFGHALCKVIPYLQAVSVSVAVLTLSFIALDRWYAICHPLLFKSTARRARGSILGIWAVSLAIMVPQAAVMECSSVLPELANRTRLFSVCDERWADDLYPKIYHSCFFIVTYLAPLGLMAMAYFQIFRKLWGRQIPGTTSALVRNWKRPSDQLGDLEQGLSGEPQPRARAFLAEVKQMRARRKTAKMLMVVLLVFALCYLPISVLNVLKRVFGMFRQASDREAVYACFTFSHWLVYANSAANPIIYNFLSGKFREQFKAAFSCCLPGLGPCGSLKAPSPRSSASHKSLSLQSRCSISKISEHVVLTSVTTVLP
Method: (§2) Kinetics of Competitive Binding (Motulski and Mahan's Analysis):
(§3) Motulsky and Mahan characterisation of the Examples was performed as described by Faedo et al., European Journal of Pharmacology 692(2012), p. 1-9 with the following modifications:
(§4) The association binding experiment was initiated by addition of membranes expressing the human Orexin 1 receptor at different times to the incubation buffer containing 1 nM of [^3H] SB674042. Non-specific binding was determined in the presence of 10 μM of SB674042. The association of the radioligand to the orexin receptor was performed as described for the kinetics experiment in the presence of the competing test compounds. The competing test compounds were assayed at three concentrations corresponding to 3, 10 and 30 fold of the determined Ki. For kinetic binding studies of the human Orexin 2 receptor, the method described for the Orexin 1 receptor was used with modifications that membranes expressing the human Orexin 2 receptor were incubated in buffer containing 1 nM of [3H] EMPA and non-specific binding was determined in the presence of 10 μM ACT-078573.

[3] = molecular target: T3, human Orexin 2 receptor (Homo sapiens, UniProt O43614); assay: Kinetics of competitive binding (Motulsky and Mahan analysis), Orexin 2 receptor; conditions: mean of 3 studies (n=3); for Ki: 1 nM [3H] EMPA, read-out: pKi (M&M) (converted)
T3 construct: expressed in transfected cells
T3 sequence (O43614 1-444): T1 sequence (O43614 1-444)
Method: as §2, §3, §4
The results for the Orexin-2 Receptor studies are the mean of the results from 3 studies (n=3) for both Example compounds.

[4] = molecular target: T4, human OX1 receptor (Homo sapiens, UniProt O43613); assay: Orexin 1 receptor radioligand binding assay ([3H]-SB674042 competition); conditions: CHO membranes, 1 nM [3H]-SB674042, 90 min room temperature; read-out: hOX1 pKi (converted)
T4 construct: expressed in transfected cells; host or cells: CHO cells
T4 sequence (O43613 1-425): T2 sequence (O43613 1-425)
Method: Orexin 1 Receptor Radioligand Binding Assay:
Cell membranes were prepared from the human OX1 receptor expressing CHO cell line. The harvested cell pellets were homogenized in ice-cold buffer (15 mM TrisHCl (pH 7.5), 2 mM MgCl2, 0.3 mM EDTA, 1 mM EGTA, Sigma protease inhibitor cocktail) and centrifuged at 41,000 g for 20 min at 4° C. After discarding the supernatants the pellets were re-suspended in the before mentioned buffer followed by homogenization and another centrifugation. Obtained pellets were re-suspended in ice cold buffer containing 75 mM TrisHCl (pH 7.5), 12.5 mM MgCl2, 0.3 mM EDTA, 1 mM EGTA, 250 mM sucrose and a protease inhibitor cocktail (Sigma). After protein quantification with the Pierce Protein Assay Kit, using BSA as standard, the membrane homogenates were aliquoted and frozen down at […] until further use.
as §1, with “Ox1” for “Ox2”, “[^3H]SB674042” for “[^3H]EMPA”, “90” for “60”

[5] = molecular target: T1, human OX2 receptor; assay: Ox2 antagonist FLIPR assay (calcium, orexin A at EC75); assay type: cell-based; conditions: CHO cells expressing human OX2; top concentration at least 10 μM; at least four replicates; read-out: hOX2 pIC50 (converted)
Text: (§5) Antagonism against orexin receptors has been measured for each example compound using at least one of the following procedures. Antagonism is reported as a pIC50, where pIC50=−log10(IC50) and where IC50 is the concentration of example compound needed to inhibit 50% of the agonist response. These values may fluctuate depending on the daily cellular assay performance. Fluctuations of this kind are known to those skilled in the art. All reported values are the result of at least four replicate experiments. Ox2 values are only reported from dose response curves for which the top concentration is at least 10 μM.
(§6) Ox1 and Ox2 Antagonist FLIPR Assay: […]
(§7) The next day media is removed and replaced with 30 μL/well of cell loading buffer (a vial of Calcium 5 is solubilized in 20 mL of assay buffer) and the cells incubated for 1 hr at 37° C. The serially diluted test compounds (10 μL/well) are added to the cell plate by the FLIPR Tetra and the addition is monitored for 5 min by the instrument. […] Finally 10 μL of orexin Ain assay buffer+0.1% (w/v) bovine serum albumin is dispensed by the FLIPR Tetra at an EC75 concentration determined for each receptor on the day of the assay. Fluorescence is measured at excitation and emission wavelengths of 485 nm and 525 nm, respectively and data analyzed using Graph Pad Prism for the EC75 value of orexin A and Aplus to determine a pIC50 value for each test compound. […]

[6] = molecular target: T4, human OX1 receptor; assay: Ox1 antagonist FLIPR assay (calcium, orexin A at EC75); assay type: cell-based; conditions: CHO cells expressing human OX1; at least four replicates; read-out: hOX1 pIC50 (converted)
Text: as §5, §6, §7

[7] = molecular target: T5, orexin-1 (OX1) (Homo sapiens, UniProt O43613); conditions: affinity of OxA relative to OxB at OX1; literature reference (2); cited from earlier work
T5 sequence (O43613 1-425): T2 sequence (O43613 1-425)

[8] = further test results (Example 1 n = 3, Example 2 n = 1)
[9] = mean of all results (Example 1 n = 5, Example 2 n = 3)
[10] = mean of initial results (n = 2)

Compound | Ki [1] [nM] | dissociation half-life [2, 8] [h] | koff [2, 8] [s⁻¹] | kon [2, 8] [M⁻¹ s⁻¹] | tR [2, 8] [min] | Ki [2, 8] [nM] | dissociation half-life [2, 9] [h] | koff [2, 9] [s⁻¹] | kon [2, 9] [M⁻¹ s⁻¹] | tR [2, 9] [min] | Ki [2, 9] [nM] | dissociation half-life [2, 10] [h] | koff [2, 10] [s⁻¹] | kon [2, 10] [M⁻¹ s⁻¹] | tR [2, 10] [min] | Ki [2, 10] [nM] | Ki [3] [nM] | dissociation half-life [3] [min] | koff [3] [s⁻¹] | kon [3] [M⁻¹ s⁻¹] | further results
Cc1ccc(-n2nccn2)c(C(=O)N(C)[C@@H](C)CNc2cnc(C(F)(F)F)cn2)n1 [Example 1, N,6-dimethyl-3-(2H-1,2,3-triazol-2-yl)-N-[(2S)-1-{[5-(trifluoromethyl)pyrazin-2-yl]amino}propan-2-yl]pyridine-2-carboxamide] | 251 | 1.73 | 0.000117 | 146000 | 150 | 0.794 | 2.83 | 8.33e-05 | 140000 | 245 | 0.501 | 4.13 | 5e-05 | 130000 | 357 | 0.316 | 316 | 4.1 | 0.00352 | 10800 | tR [3]: 5.9 min; Ki [4]: 1 nM; IC50 [5]: 1000 nM; IC50 [6]: 0.794 nM
Cc1ccc(-n2nccn2)c(C(=O)N(C)[C@@H](C)CNc2ncc(C(F)(F)F)cn2)n1 [Example 2, N,6-dimethyl-3-(2H-1,2,3-triazol-2-yl)-N-[(2S)-1-{[5-(trifluoromethyl)pyrimidin-2-yl]amino}propan-2-yl]pyridine-2-carboxamide] | 794 | 1 | 0.000183 | 78000 | 87 | 2.51 | 1.08 | 0.000183 | 76200 | 93 | 2.51 | 1.12 | 0.000167 | 75300 | 96 | 2.51 | 1580 | 4.3 | 0.00298 | 1830 | tR [3]: 6.2 min; Ki [4]: 1.58 nM; IC50 [5]: 2000 nM; IC50 [6]: 1.26 nM
OxA: neuropeptide Orexin-A, a 33 amino acid polypeptide, agonist on OX1 and OX2 receptors (QPLPDCCRQKTCSCRLYELLHGAGNHAAGILTL; not fully specified (residue 1, C-terminus, bridges); cysteine pairing not given here; UniProt O43612 34-66, looked up) | – | – | – | – | – | – | – | – | – | – | – | – | – | – | – | – | – | – | – | – | higher affinity than OxB [7]: > 10 fold
